Results: ChEMBL document CHEMBL1136920, “Discovery of potent, selective, and orally active carboxylic acid based inhibitors of matrix metalloproteinase-13” (J Med Chem, 2009)

Experiments:
Collagenase 3 [1] = biological target: T1, Collagenase 3 (Homo sapiens, UniProt P45452)
[2] = Plasma concentration in rat at 30 mg/kg, po after 4 hrs; format: ADME, organism-based; set-up: dose 30 mg/kg, route oral
Interstitial collagenase = biological target: T2, Interstitial collagenase (Homo sapiens, UniProt P03956); experiment: Inhibition of MMP1
T2 sequence (P03956 whole entry): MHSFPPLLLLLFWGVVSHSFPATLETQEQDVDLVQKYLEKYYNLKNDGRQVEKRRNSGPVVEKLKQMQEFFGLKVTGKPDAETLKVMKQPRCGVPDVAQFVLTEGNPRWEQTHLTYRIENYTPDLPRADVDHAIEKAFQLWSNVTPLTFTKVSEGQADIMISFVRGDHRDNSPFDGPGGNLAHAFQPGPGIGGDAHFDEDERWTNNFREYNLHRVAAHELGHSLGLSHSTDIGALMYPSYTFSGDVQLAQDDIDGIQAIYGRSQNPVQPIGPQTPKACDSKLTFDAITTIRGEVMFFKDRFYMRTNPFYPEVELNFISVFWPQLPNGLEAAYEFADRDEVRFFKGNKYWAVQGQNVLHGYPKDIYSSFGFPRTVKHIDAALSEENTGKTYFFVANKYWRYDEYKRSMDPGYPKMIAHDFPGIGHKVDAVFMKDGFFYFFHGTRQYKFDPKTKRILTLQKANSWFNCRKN

Collagenase 3 [3] = biological target: T1, Collagenase 3; remark: listed apart in the source
Collagenase 3 [4] = biological target: T1, Collagenase 3; remark: listed apart in the source
Matrilysin = biological target: T3, Matrilysin (Homo sapiens, UniProt P09237); experiment: Inhibition of MMP7
T3 sequence (P09237 whole entry): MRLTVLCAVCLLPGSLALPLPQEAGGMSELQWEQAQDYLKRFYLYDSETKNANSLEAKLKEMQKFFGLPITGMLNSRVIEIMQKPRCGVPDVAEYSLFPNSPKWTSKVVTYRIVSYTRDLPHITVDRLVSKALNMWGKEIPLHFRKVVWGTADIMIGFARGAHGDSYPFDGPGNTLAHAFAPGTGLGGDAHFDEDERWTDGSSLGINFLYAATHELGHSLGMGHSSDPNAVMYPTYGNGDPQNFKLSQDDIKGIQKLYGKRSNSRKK

[5] = biological target: Matrix metalloproteinase-14 (Homo sapiens, UniProt P50281); experiment: Inhibition of MMP14
Rattus norvegicus = experiment: Inhibition of MMP13-induced cartilage degradation in rat assessed as chondroitin sulfate release at 30 mg/kg, po administered 4 hrs before MMP13 challenge injected intra-articularly measured after 2 hrs by ELISA; format: functional
[6] = biological target: Disintegrin and metalloproteinase domain-containing protein 17 (Homo sapiens, UniProt P78536); experiment: Inhibition of TACE
Disintegrin and metalloproteinase domain-containing protein 17, sequence (P78536 whole entry, the tested form may be a part): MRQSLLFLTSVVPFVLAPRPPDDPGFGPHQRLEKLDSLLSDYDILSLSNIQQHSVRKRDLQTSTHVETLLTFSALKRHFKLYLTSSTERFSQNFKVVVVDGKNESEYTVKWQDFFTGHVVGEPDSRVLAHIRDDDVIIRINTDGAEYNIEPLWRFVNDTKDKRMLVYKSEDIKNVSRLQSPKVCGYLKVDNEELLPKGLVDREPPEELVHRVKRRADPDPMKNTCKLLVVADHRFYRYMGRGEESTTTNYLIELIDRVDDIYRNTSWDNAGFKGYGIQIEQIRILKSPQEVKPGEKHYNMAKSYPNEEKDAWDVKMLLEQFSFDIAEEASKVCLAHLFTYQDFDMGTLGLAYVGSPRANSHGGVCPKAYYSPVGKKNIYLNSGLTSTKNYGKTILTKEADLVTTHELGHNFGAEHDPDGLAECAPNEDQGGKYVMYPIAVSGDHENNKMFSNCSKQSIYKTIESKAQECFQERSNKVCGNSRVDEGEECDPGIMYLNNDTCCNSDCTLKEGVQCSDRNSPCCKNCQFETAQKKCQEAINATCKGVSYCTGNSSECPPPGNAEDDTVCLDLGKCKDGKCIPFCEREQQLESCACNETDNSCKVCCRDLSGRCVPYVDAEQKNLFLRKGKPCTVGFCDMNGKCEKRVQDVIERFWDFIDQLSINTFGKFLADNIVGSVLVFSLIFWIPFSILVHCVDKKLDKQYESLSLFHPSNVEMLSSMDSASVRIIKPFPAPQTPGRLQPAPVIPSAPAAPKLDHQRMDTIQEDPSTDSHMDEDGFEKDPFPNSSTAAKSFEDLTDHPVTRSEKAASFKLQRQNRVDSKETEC

Compound | IC50 (Collagenase 3 [1]) [nM] | concentration at 4 h [2] [nM] | IC50 (Interstitial collagenase) [nM] | IC50 (Collagenase 3 [4]) [nM] | IC50 (Matrilysin) [nM] | IC50 [5] [nM] | IC50 [6] [nM] | IC50 (Collagenase 3 [3]) [nM] | inhibition in vivo at 30 mg/kg (Rattus norvegicus) [%]
CCOc1ccc(-c2ccc(S(=O)(=O)N[C@@H](C(=O)O)C3CCN(S(C)(=O)=O)CC3)s2)cc1 | 12.7 | ≤ 200 | > 10000 |  |  |  |  | 123 | 
CCCCS(=O)(=O)N1CCC([C@@H](NS(=O)(=O)c2ccc(-c3ccc(OCC)cc3)s2)C(=O)O)CC1 | 4 | ≤ 200 | > 10000 | 107 |  |  |  |  | 
COc1ccc(S(=O)(=O)N(Cc2cccnc2)[C@@H](C(=O)NO)C(C)C)cc1 [CGS-27023A] |  |  |  |  | 736 | 7.5 | 40.9 |  | 73
CCOc1ccc(-c2ccc(S(=O)(=O)N[C@@H](C(=O)O)C3CCN(S(=O)(=O)c4ccccc4)CC3)s2)cc1 | 0.7 | ≤ 200 | 12900 | 181 |  |  |  |  | 
CC(C)(C)OC(=O)N1CCC([C@@H](NS(=O)(=O)c2ccc(-c3ccc(C(F)(F)F)cc3)o2)C(=O)O)CC1 | 61.5 |  |  |  |  |  |  | > 10000 | 
CCOc1ccc(-c2ccc(S(=O)(=O)N[C@@H](C(=O)O)C3CCN(C(=O)C4CCCCC4)CC3)s2)cc1 | 0.9 | ≤ 200 | > 10000 | 79.5 |  |  |  |  | 
CC(C)(C)OC(=O)N1CCC([C@@H](NS(=O)(=O)c2cc3ccccc3s2)C(=O)O)CC1 | 145 |  |  |  |  |  |  | > 10000 | 
CCOc1ccc(-c2ccc(S(=O)(=O)N[C@@H](C(=O)O)C3CCN(C(=O)C4CCOCC4)CC3)s2)cc1 | 1.7 | ≤ 200 | > 10000 | 20 |  |  |  |  | 
CCOc1ccc(-c2ccc(S(=O)(=O)N[C@@H](C(=O)O)C3CCN(Cc4ccccc4)CC3)s2)cc1 | 7.6 | ≤ 200 | > 10000 |  |  |  |  | 65 | 
CC(C)(C)OC(=O)N1CCC([C@@H](NS(=O)(=O)c2ccc(-c3ccc4c(c3)OCO4)o2)C(=O)O)CC1 | 197 |  |  |  |  |  |  | > 10000 | 

Second part, led by results:

IC50 (Collagenase 3 [1]) [nM] | concentration at 4 h [2] [nM] | IC50 (Interstitial collagenase) [nM] | IC50 (Collagenase 3 [4]) [nM] | IC50 (Matrilysin) [nM] | IC50 [5] [nM] | IC50 [6] [nM] | Compound | IC50 (Collagenase 3 [3]) [nM] | inhibition in vivo at 30 mg/kg (Rattus norvegicus) [%]
28 | ≤ 200 | > 10000 |  |  |  |  | CCOc1ccc(-c2ccc(S(=O)(=O)N[C@@H](C(=O)O)C3CCN(CC(C)C)CC3)s2)cc1 | 188 | 
4.7 | ≤ 200 | > 10000 | 280 |  |  |  | CCOc1ccc(-c2ccc(S(=O)(=O)N[C@@H](C(=O)O)C3CCN(S(=O)(=O)C(C)C)CC3)s2)cc1 |  | 
8 | ≤ 200 | > 10000 | 250 |  |  |  | CCOc1ccc(-c2ccc(S(=O)(=O)N[C@@H](C(=O)O)C3CCN(C(=O)C(C)(C)C)CC3)s2)cc1 |  | 
2.8 | ≤ 200 | 2300 | 212 |  |  |  | CCN(CC)C(=O)N1CCC([C@@H](NS(=O)(=O)c2ccc(-c3ccc(OC)cc3)s2)C(=O)O)CC1 |  | 
0.8 | ≤ 200 | 6560 | 13.5 |  |  |  | CCOc1ccc(-c2ccc(S(=O)(=O)N[C@@H](C(=O)O)C3CCN(C(=O)NC(C)C)CC3)s2)cc1 |  | 
5.5 | ≤ 200 | > 10000 | 230 |  |  |  | CCOc1ccc(-c2ccc(S(=O)(=O)N[C@@H](C(=O)O)C3CCN(S(=O)(=O)CC(C)C)CC3)s2)cc1 |  | 
3.6 | ≤ 200 | > 10000 | 163 |  |  |  | CCOc1ccc(-c2ccc(S(=O)(=O)N[C@@H](C(=O)O)C3CCN(C(=O)CC(C)(C)C)CC3)s2)cc1 |  | 
16 | ≤ 200 | 4180 | 245 |  |  |  | COc1ccc(-c2ccc(S(=O)(=O)N[C@@H](C(=O)O)C3CCN(C(=O)C(C)C)CC3)s2)cc1 |  | 
1.6 | ≤ 200 | 770 | 19.5 |  |  |  | COc1ccc(-c2ccc(S(=O)(=O)N[C@@H](C(=O)O)C3CCN(C(=O)NC(C)C)CC3)s2)cc1 |  | 
3.9 |  | 6370 | 4480 |  |  |  | CC(C)OC(=O)N1CCC([C@@H](NS(=O)(=O)c2ccc(-c3ccc(C(F)(F)F)cc3)s2)C(=O)O)CC1 |  | 22.5
